Literature values, collected in PMC4132888 (Biopolymers, 2014).
Where no end group is shown, it is not given here. [ ]: non-standard residue; d: D form.

How the values were obtained:
[1] = biological target: T1, rat μ opioid receptor (MOR) (Rattus norvegicus, UniProt P33535); conditions: previously reported; ref [13]
[2] = biological target: T2, rat δ opioid receptor (DOR) (Rattus norvegicus, UniProt P33533); conditions: previously reported; ref [13]
[3] = biological target: T1, rat μ opioid receptor (MOR); conditions: previously reported; ref [13]; remark: listed apart in the source
[4] = biological target: T2, rat δ opioid receptor (DOR); conditions: previously reported; ref [13]; remark: listed apart in the source
[5] = test system: KOR
[6] = biological target: MOR; conditions: read-out: Binding MOR; ref [33]
[7] = biological target: DOR; conditions: read-out: Binding DOR; ref [33]

T2 sequence (P33533 whole entry): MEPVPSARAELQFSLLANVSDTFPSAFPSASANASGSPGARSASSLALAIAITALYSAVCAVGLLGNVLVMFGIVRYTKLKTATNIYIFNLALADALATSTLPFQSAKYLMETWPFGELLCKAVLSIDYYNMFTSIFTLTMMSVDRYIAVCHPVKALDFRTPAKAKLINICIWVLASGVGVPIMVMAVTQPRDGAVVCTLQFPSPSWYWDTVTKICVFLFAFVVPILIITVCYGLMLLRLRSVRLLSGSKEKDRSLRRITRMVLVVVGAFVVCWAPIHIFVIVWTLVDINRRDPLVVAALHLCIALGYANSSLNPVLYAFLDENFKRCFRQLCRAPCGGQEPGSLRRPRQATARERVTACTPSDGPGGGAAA
T1 sequence (P33535 whole entry): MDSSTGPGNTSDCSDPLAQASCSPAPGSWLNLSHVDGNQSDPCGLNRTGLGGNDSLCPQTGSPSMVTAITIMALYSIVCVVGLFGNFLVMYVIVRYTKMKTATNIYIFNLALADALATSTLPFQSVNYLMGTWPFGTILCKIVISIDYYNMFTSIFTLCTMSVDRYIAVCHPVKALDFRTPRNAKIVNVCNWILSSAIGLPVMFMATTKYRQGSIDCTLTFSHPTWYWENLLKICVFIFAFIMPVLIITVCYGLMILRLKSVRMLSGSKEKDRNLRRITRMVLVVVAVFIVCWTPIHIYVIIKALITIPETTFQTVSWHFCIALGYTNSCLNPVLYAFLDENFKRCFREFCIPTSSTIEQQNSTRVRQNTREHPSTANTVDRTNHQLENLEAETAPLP

## Dmt-c(S-Et-S)[DCys-Aic-DPen]OH [KSK-103]
[1]
  Agonist activity at MOR (in words): moderate agonist activity
[2]
  Stimulation of DOR (in words): no stimulation
[3]
  Binding for MOR (in words): low nanomolar binding
[4]
  Binding for DOR (in words): low nanomolar binding

## Tyr-DThr-Gly-Phe-Leu-Ser-(O-β-D-lactose)-NH2 [MMP-2200]
[5]; ref Polt and co-workers
  KOR affinity (in words): high KOR affinity

## Y[dT]GFLS-NH2 [DTLES]
[6]
  Ki: 1.4 ± 0.08 nM
[7]
  Ki: 4.1 ± 0.41 nM
[5]; read-out: Binding KOR, ref [33]
  Ki: 34 ± 2.2 nM
